Measurements published in patent publication US20070231838A1, “Method for the assay of rock kinase activity in cells” (priority 2006, published 2007).

Tested on: ROCK kinase
Test: Immunoblotting of MYPT1 phosphorylation in Panc-1 cells treated with ROCK inhibitors
Type: cell-based, human
Conditions: for rank order of potency for reduction of MYPT1 phosphorylation: 1 h incubation, immunoblotting (FIG. 5A)
Description: FIG. 3: Extraction of cytoskeletal substrates of ROCK1/ROCK2 from Pancd cell extracts: (A) Panc-1 cells were incubated in the presence and absence of 10 μM ROCK inhibitor Y27632 for 1 h followed by lysis in the indicated buffers. Equal fractions of cell lysate were analyzed by immunoblotting for pMYPT1 (T696 or T853), total MYPT1, pMLC (S19) and total MLC. (B) 10 μL aliquots of Panc-1 cell lysate prepared in PROTEOEXTRACT® buffer (or buffer alone for control wells) were diluted in buffer A as indicated prior to addition to MYPT1 antibody-coated ELISA assay plate wells. Quantitation of the extent of MYPT1 (T853) phosphorylation was performed in triplicate assay wells as described in the methods section. Results plotted are mean signal intensities, error bars represent Standard Deviations.
FIG. 4: Time course of reduction of MYPT1 phosphorylation bv ROCK inhibitors in Pancl cells: Panc-1 cells were incubated in the presence and absence of 10 μM ROCK inhibitor Y27632 for the indicated time points followed by lysis in SDS-PAGE sample buffer. Equal fractions of cell lysate were then analyzed by immunoblotting for pMYPT1 (T696 or T853) and total MYPT1 protein.
FIG. 5: Effect of ROCK inhibitors on MYPT1 (T853) phosphorylation in Panc-1 cells: (A) Panc-1 cells were incubated in the presence and absence of the indicated concentrations of ROCK inhibitors H1152, Y27632 or HA1077 for 1 h, followed by lysis in SDS-PAGE sample buffer. Equal fractions of cell lysate were then analyzed by immunoblotting for pMYPT1 (T696 or T853) and total MYPT1 protein. (B) Panc1 cells were grown in 96-well culture plates, and incubated for 1 h with the indicated concentrations of compound ROCK inhibitors H1152, Y27632 or HA1077. Lysates were then prepared in PROTEOEXTRACT® buffer, and analyzed in the pMYPT1 (T853) ELISA assay as described in the Methods section.
Human cancer cell lines were purchased from the American Type Culture Collection (ATCC). Panc-1 cells were grown in Dulbecco's modified Eagle's medium with 2 mM L-glutamine adjusted to contain 3.7 g/L sodium bicarbonate and 4.5 g/L glucose, 10% fetal bovine serum. All other cell lines were grown in media as prescribed by the ATCC, containing 10% FCS.
Lysates were prepared from cultured cells, following a brief rinse in PBS, using several different buffers. Buffer A (50 mM Tris-HCl, pH 7.4, 150 mM NaCl, 10% glycerol, 1% Triton X-100, 0.5 mM EDTA, 1 mM […], […], lmg/ml aprotinin) and buffer B (RIPA buffer: Sigma catalog #R0278, containing protease and phosphatase inhibitor cocktails Sigma catalog #P2850, P5726 P8340) were added to the cells in culture dishes, the cells were scraped from the dish and the lysates transferred to eppendorf tubes and incubated at 4° C. for 20 min. Lysates were then clarified by centrifugation at 10,000 g, and the resulting supernatants were stored at −80° C. prior to the addition of SDS-PAGE sample buffer and analysis by immunoblotting. Alternatively, lysates were prepared by the direct addition of SDS-PAGE sample buffer to the cultures, and samples were prepared for analysis by sonication for 5 min followed by heating to 100° C. for 5 min. Alternatively, lysates were prepared by the addition of PROTEOEXTRACT® solution (complete mammalian proteome extraction kit, Calbiochem, #539779) including 16.5 IU of BENZONASE® (Novagen, Inc., Madison, Wis.) followed by shaking for 30 minutes at room temperature. Samples prepared by this method were either diluted directly into SDS-PAGE sample buffer for analysis by immunoblotting, or were diluted 10-fold in buffer A for analysis in antibody capture ELISA assays. Tumor lysates were prepared using the PROTEOEXTRACT® complete mammalian proteome extraction kit (Calbiochem, #539779). Approximately 300 mg samples of tumor sample were homogenized and dispersed in […] resuspension buffer, then 2.4 mL extraction reagent and 150 μl reducing agent were added and the samples were mixed thoroughly. […]

[1] = 10 μM for 1 h prior to lysis, immunoblotting (FIG. 3)
[2] = 10 μM, time course up to 24 h (FIG. 4)

| Compound | level of MYPT1 phosphorylation [1] | total MYPT1 protein content of the extracts [1] | incubation time necessary to maximally reduce steady-state phosphorylation of MYPT1 T696 [2] | time to maximal reduction of steady-state phosphorylation of MYPT1 (T853) [2] | rank order of potency for reduction of MYPT1 phosphorylation |
| --- | --- | --- | --- | --- | --- |
| C[C@@H](N)[C@H]1CC[C@H](C(=O)Nc2ccncc2)CC1 [Y27632] | significantly reduced | without affecting significantly | at least 8 hours | 30 to 60 min | H1152>Y27632>HA1077 |
| O=S(=O)(c1cccc2cnccc12)N1CCCNCC1 [HA1077] |  |  |  |  | H1152>Y27632>HA1077 |
| Cc1cncc2cccc(S(=O)(=O)N3CCCNC[C@@H]3C)c12 [H1152] |  |  |  |  | H1152>Y27632>HA1077 |
